Test results from US20040171696A1, “Pharmaceutical composition for the treatment of the decline and/or damage of cognitive functions” (priority 2001, published 2004).

How the values were obtained:
[1] = tested on: Male Wistar rats; assay: step through passive avoidance learning; assay type: in vivo, rat; details: ip, FIG. 1
Procedure: Male Wistar rats weighing 200-220 g were used. The animals were obtained from Charles River Co. They were kept in a room with normal 12-12 h light dark cycle (light on: 06:00) at a relative humidity of 60±10%.
The experiment was performed in a five-channel “step through”-type passive avoidance learning apparatus. The equipment consisted of two adjacent Plexi-glass boxes of 20×20×16 cm. One of them was made of regular transparent Plexi-glass and the other one was made of black, non-transparent Plexi-glass. The boxes were connected with a 7.5×8 cm passage way, equipped with a computer-controlled guillotine-door. The passage of the rats through the door was detected by infrared photocells arranged in two parallel lines in the opening of the passage way. The door was automatically closed when the animals passed through. The dark compartment was equipped with stainless steel grid floor through which electric foot shocks could be delivered to the animals. […]
The individually numbered animals were placed into the light compartment of the equipment. […] Step through latency was automatically determined. […]
After 24 h the animals were placed again in the light compartment of the test apparatus and step-through latency was measured as described at Acquisition day, except that no foot shock was applied to the animals in any group on the second day. […]

[2] = cited from earlier work
[3] = as low as 0.7 mg/kg intraperitoneal; cited from earlier work
[4] = tested on: rats; details: 1 and 10 mg/kg per os; cited from earlier work
[5] = intraperitoneal 1 and 10 mg/kg; cited from earlier work
[6] = target: central 5-HT2A receptors (Homo sapiens, UniProt P28223); details: cited from earlier work
[7] = per os 10 and 30 mg/kg; cited from earlier work
[8] = 3 mg/kg single subcutaneous administration; cited from earlier work
[9] = target: central 5-HT2C receptors (Homo sapiens, UniProt P28335); details: cited from earlier work
central 5-HT2C receptors, sequence (P28335 33-458): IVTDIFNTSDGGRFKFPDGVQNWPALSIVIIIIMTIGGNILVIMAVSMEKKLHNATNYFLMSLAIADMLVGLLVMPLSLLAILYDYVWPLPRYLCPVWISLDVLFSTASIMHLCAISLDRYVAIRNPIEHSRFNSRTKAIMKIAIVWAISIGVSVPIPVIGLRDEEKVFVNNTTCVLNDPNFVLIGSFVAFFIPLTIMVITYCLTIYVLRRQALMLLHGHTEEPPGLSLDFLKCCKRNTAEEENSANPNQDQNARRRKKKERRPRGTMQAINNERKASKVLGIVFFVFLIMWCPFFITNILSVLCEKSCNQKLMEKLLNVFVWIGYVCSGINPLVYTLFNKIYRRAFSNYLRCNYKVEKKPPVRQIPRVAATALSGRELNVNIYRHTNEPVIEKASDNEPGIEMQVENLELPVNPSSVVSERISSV

central 5-HT2A receptors, sequence (P28223 whole entry): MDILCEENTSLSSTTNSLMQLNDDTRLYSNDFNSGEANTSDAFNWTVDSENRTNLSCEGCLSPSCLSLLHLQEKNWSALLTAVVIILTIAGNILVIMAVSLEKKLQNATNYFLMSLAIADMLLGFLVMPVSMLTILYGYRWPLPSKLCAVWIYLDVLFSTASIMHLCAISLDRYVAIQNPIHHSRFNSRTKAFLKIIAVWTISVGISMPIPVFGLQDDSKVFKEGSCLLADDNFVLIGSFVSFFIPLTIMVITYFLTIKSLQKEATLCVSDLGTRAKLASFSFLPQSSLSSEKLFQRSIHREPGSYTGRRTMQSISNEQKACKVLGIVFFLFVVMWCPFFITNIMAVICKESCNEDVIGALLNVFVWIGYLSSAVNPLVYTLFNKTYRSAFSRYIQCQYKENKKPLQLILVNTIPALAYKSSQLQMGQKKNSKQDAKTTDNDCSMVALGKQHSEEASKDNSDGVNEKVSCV

| Compound | step-through latency into the dark compartment ([1]; Day 1 administration, 30 min before Acquisition, latency on Day 2) | step-through latency into the dark compartment ([1]; Day 2 administration, 30 min before Retention test) | effect on CCK agonist induced anxiety in elevated plus-maze ([2]; CCK agonist induced anxiety) | activity in elevated plus-maze, alone ([2]; deramciclane alone) | number of social interactions [3] | effect in Vogel lick-conflict model [4] | effect in learned helplessness [5] | binding to 5-HT2A receptors [6] | activity in marble burying test [7] | anxiolytic activity in light-dark model [8] | binding to 5-HT2C receptors [9] |
| --- | --- | --- | --- | --- | --- | --- | --- | --- | --- | --- | --- |
| CN(C)CCO[C@]1(c2ccccc2)C[C@H]2CC[C@]1(C)C2(C)C.O=C(O)/C=C/C(=O)O [(1R,2S,4R)-(−)-2-(2-dimethylaminoethoxy)-2-phenyl-1,7,7-trimethyl-bicyclo[2.2.1]heptane-fumarate] | significantly increased | significantly increased | – | – | – | – | – | – | – | – | – |
| CN(C)CCO[C@]1(c2ccccc2)C[C@H]2CC[C@]1(C)C2(C)C [deramciclane, (1R,2S,4R)-(−)-2-(2-dimethylaminoethoxy)-2-phenyl-1,7,7-trimethylbicyclo[2.2.1]heptane] | – | – | antagonized CCK agonist induced anxiety | completely inactive | increased the number of social interactions | effective | effective | binds | displayed significant activity | showed anxiolytic activity | binds |
